Measured values published in US10183914B2 (BAYER CROPSCIENCE AKTIENGESELLSCHAFT, priority 2014, dated 2019).

Legend:
[1] = logp (HCOOH), physicochemical characterization
Oryza sativa = assay: Pre-emergence herbicidal effect and crop plant compatibility; type: in vivo; settings: 3 weeks
Source text: (§1) Seeds of monocotyledonous and dicotyledonous weed plants and crop plants are laid out in wood-fiber pots in sandy loam and covered with soil. The compounds of the invention, formulated in the form of wettable powders (WP) or as emulsion concentrates (EC), are then applied to the surface of the covering soil as aqueous suspension or emulsion at a water application rate equating to 600 to 800 L/ha with addition of 0.2% wetting agent.
(§2) After the treatment, the pots are placed in a greenhouse and kept under good growth conditions for the trial plants. The damage to the trial plants is scored visually after a trial duration of 3 weeks by comparison with untreated controls (herbicidal activity in percent (%): 100% efficacy=the plants have died, 0% efficacy=like control plants).

[2] = tested on: Triticum aestivum (spring); assay: as above; type: in vivo; settings: 3 weeks
Source text: as §1, §2

Zea mays = assay: as above; type: in vivo; settings: 3 weeks
Source text: as §1, §2

Echinochloa crus-galli = assay: Pre-emergence herbicidal effect; type: in vivo; settings: 3 weeks
Source text: as §1, §2

Matricaria inodora = assay: Pre-emergence herbicidal effect; type: in vivo; settings: 3 weeks
Source text: as §1, §2

Amaranthus retroflexus = assay: Pre-emergence herbicidal effect; type: in vivo; settings: 3 weeks
Source text: as §1, §2

Setaria viridis = assay: Pre-emergence herbicidal effect; type: in vivo; settings: 3 weeks
Source text: as §1, §2

Veronica persica = assay: Pre-emergence herbicidal effect; type: in vivo; settings: 3 weeks
Source text: as §1, §2

Polygonum convolvulus = assay: Pre-emergence herbicidal effect; type: in vivo; settings: 3 weeks
Source text: as §1, §2

Stellaria media = assay: Pre-emergence herbicidal effect; type: in vivo; settings: 3 weeks
Source text: as §1, §2

[3] = tested on: Triticum aestivum (spring); assay: Post-emergence herbicidal effect and crop plant compatibility; type: in vivo; settings: 320 g/ha, visual scoring after about 3 weeks
Experimental: Seeds of monocotyledonous and dicotyledonous weed and crop plants are laid out in sandy loam in wood-fiber pots, covered with soil and cultivated in a greenhouse under good growth conditions. 2 to 3 weeks after sowing, the test plants are treated at the one-leaf stage. The compounds of the invention, formulated in the form of wettable powders (WP) or as emulsion concentrates (EC), are then sprayed onto the green parts of the plants as aqueous suspension or emulsion at a water application rate equating to 600 to 800 L/ha with addition of 0.2% wetting agent. After the trial plants have been left to stand in a greenhouse under optimal growth conditions for about 3 weeks, the efficacy of the formulations is scored visually in comparison to untreated controls (herbicidal action in percent (%): 100% efficacy=the plants have died, 0% efficacy=like control plants).

Viola tricolor = assay: Pre-emergence herbicidal effect; type: in vivo; settings: 3 weeks
Source text: as §1, §2

SMILES: COc1ccc2c(c1)CCCC2Nc1ncc2c(n1)CCCC2=O (racemic) [2.109]
- logp (HCOOH) [1]: solid; m.p.: 151.3° C.; logp (HCOOH): 2.83; 1H-NMR (CDCl3, 400 MHZ, δ in ppm):

SMILES: CC1CCC(Nc2ncc3c(n2)CCCC3=O)c2ccccc21 (racemic) [2.111]
- logp (HCOOH) [1]: oily; logp (HCOOH): 3.37; 1H-NMR (CDCl3, 400 MHZ, δ in ppm): 1.35 (d, 3H, 3H

SMILES: O=C1CCCc2nc(NC3CCSc4ccc(F)cc43)ncc21 (racemic) [2.114]
- logp (HCOOH) [1]: oily; logp (HCOOH): 2.77; 1H-NMR (CDCl3, 400 MHZ, δ in ppm): 2.10 (m, 2H, 2H

SMILES: CC(=O)c1cnc(N[C@@H]2CCCc3ccccc32)nc1 [1.3, 1-{2-[(1R)-1,2,3,4-tetrahydronaphthalen-1-ylamino]pyrimidin-5-yl}ethanone]
- chromatographic logP ([1]; HCOOH (formic acid)): 2.51
- ORYSA herbicidal activity in percent (Oryza sativa; 80 g/ha): 20%
- TRZAS herbicidal activity in percent ([2]; 80 g/ha): 20%
- TRZAS herbicidal activity in percent ([2]; 320 g/ha): 20%
- ZEAMX herbicidal activity in percent (Zea mays; 80 g/ha): 20%
- ECHCG herbicidal activity in percent (Echinochloa crus-galli; 80 g/ha): 80%
- ECHCG herbicidal activity in percent (Echinochloa crus-galli; 320 g/ha): 100%
- MATIN herbicidal activity in percent (Matricaria inodora; 80 g/ha): 90%
- MATIN herbicidal activity in percent (Matricaria inodora; 320 g/ha): 100%
- AMARE herbicidal activity in percent (Amaranthus retroflexus; 80 g/ha): 100%
- AMARE herbicidal activity in percent (Amaranthus retroflexus; 320 g/ha): 100%
- SETVI herbicidal activity in percent (Setaria viridis; 320 g/ha): 80%
- VERPE herbicidal activity in percent (Veronica persica; 80 g/ha): 100%
- VERPE herbicidal activity in percent (Veronica persica; 320 g/ha): 100%
- POLCO herbicidal activity in percent (Polygonum convolvulus; 80 g/ha): 80%
- POLCO herbicidal activity in percent (Polygonum convolvulus; 320 g/ha): 100%
- STEME herbicidal activity in percent (Stellaria media; 320 g/ha): 90%

SMILES: CC(=O)c1cnc(N[C@H]2c3cc(C)ccc3C[C@@H]2C)nc1 [1.10]
- chromatographic logP ([1]; HCOOH): 2.99

SMILES: CC(=O)c1cnc(N[C@@H]2CCCc3ccccc32)nc1C [1.82, 1-{4-methyl-2-[(1R)-1,2,3,4-tetrahydronaphthalen-1-ylamino]pyrimidin-5-yl}ethanone]
- chromatographic logP ([1]; HCOOH (formic acid)): 3.03
- ORYSA herbicidal activity in percent (Oryza sativa; 80 g/ha): 0%
- ORYSA herbicidal activity in percent (Oryza sativa; 320 g/ha): 3%
- TRZAS herbicidal activity in percent ([2]; 80 g/ha): 0%
- TRZAS herbicidal activity in percent ([2]; 320 g/ha): 0%
- ZEAMX herbicidal activity in percent (Zea mays; 80 g/ha): 0%
- post-emergence efficacy TRZAS [3]: 0%
- MATIN herbicidal activity in percent (Matricaria inodora; 80 g/ha): 90%
- MATIN herbicidal activity in percent (Matricaria inodora; 320 g/ha): 90%
- AMARE herbicidal activity in percent (Amaranthus retroflexus; 80 g/ha): 90%
- AMARE herbicidal activity in percent (Amaranthus retroflexus; 320 g/ha): 90%
- VERPE herbicidal activity in percent (Veronica persica; 80 g/ha): 100%
- VERPE herbicidal activity in percent (Veronica persica; 320 g/ha): 100%
- POLCO herbicidal activity in percent (Polygonum convolvulus; 320 g/ha): 80%
- VIOTR herbicidal activity in percent (Viola tricolor; 80 g/ha): 100%
- VIOTR herbicidal activity in percent (Viola tricolor; 320 g/ha): 100%
- STEME herbicidal activity in percent (Stellaria media; 320 g/ha): 100%

SMILES: CC(=O)c1cnc(N[C@@H]2CCc3ccccc32)nc1C [1.89]
- logp (HCOOH) [1]: solid; logp (HCOOH): 2.80; 1H-NMR (CDCl3, 400 MHZ, δ in ppm: 1.90 (m, 1H, 1H
- ORYSA herbicidal activity in percent (Oryza sativa; 320 g/ha): 0%
- TRZAS herbicidal activity in percent ([2]; 80 g/ha): 0%
- TRZAS herbicidal activity in percent ([2]; 320 g/ha): 0%
- ZEAMX herbicidal activity in percent (Zea mays; 80 g/ha): 0%
- ZEAMX herbicidal activity in percent (Zea mays; 320 g/ha): 0%
- MATIN herbicidal activity in percent (Matricaria inodora; 80 g/ha): 100%
- MATIN herbicidal activity in percent (Matricaria inodora; 320 g/ha): 100%
- AMARE herbicidal activity in percent (Amaranthus retroflexus; 320 g/ha): 100%
- VERPE herbicidal activity in percent (Veronica persica; 80 g/ha): 80%
- VERPE herbicidal activity in percent (Veronica persica; 320 g/ha): 100%
- VIOTR herbicidal activity in percent (Viola tricolor; 80 g/ha): 90%
- VIOTR herbicidal activity in percent (Viola tricolor; 320 g/ha): 100%
- STEME herbicidal activity in percent (Stellaria media; 80 g/ha): 80%
- STEME herbicidal activity in percent (Stellaria media; 320 g/ha): 80%

SMILES: CC(=O)c1cnc(N[C@@H]2CCc3c(C)cc(C)cc32)nc1 [1.95]
- logp (HCOOH) [1]: solid; m.p.: 153.0° C.; logp (HCOOH): 3.45; 1H-NMR (CDCl3, 400 MHZ, δ in ppm):

SMILES: O=C1CCCc2nc(N[C@@H]3CCc4ccccc43)ncc21 [2.38]
- logp (HCOOH) [1]: oily; logp (HCOOH): 4.84; 1H-NMR (CDCl3, 400 MHZ, δ in ppm): 1.85 (m, 1H, 1H

SMILES: Cc1ccc2c(c1)[C@H](Nc1ncc3c(n1)CCCC3=O)CC2 [2.41]
- logp (HCOOH) [1]: oily; logp (HCOOH): 3.21; 1H-NMR (CDCl3, 400 MHZ, δ in ppm): 1.95 (m, 1H, 1H

SMILES: Cc1ccc2c(c1)[C@H](Nc1ncc3c(n1)CC(c1ccccc1F)CC3=O)[C@@H](C)C2 (stereo partly shown) [2.50]
- logp (HCOOH) [1]: oily; logp (HCOOH): 4.86; 1H-NMR (CDCl3, 400 MHZ, δ in ppm): 1.25 (t, 3H, CH3);
- ZEAMX herbicidal activity in percent (Zea mays; 320 g/ha): 0%
- ZEAMX herbicidal activity in percent (Zea mays; 1280 g/ha): 0%
- AMARE herbicidal activity in percent (Amaranthus retroflexus; 1280 g/ha): 100%
- SETVI herbicidal activity in percent (Setaria viridis; 1280 g/ha): 80%
- VERPE herbicidal activity in percent (Veronica persica; 320 g/ha): 100%
- VERPE herbicidal activity in percent (Veronica persica; 1280 g/ha): 100%
- VIOTR herbicidal activity in percent (Viola tricolor; 320 g/ha): 90%
- VIOTR herbicidal activity in percent (Viola tricolor; 1280 g/ha): 90%
- STEME herbicidal activity in percent (Stellaria media; 320 g/ha): 100%
- STEME herbicidal activity in percent (Stellaria media; 1280 g/ha): 100%
